Laboratory results published in the supplement of paper PMC10307832.

Key:
Test in all cases: relative viability (nuclei count vs DMSO), 5 days (fraction); higher = more cells survive
[1] = compound: O=c1ncccn1[C@@H]1O[C@H](CO)[C@@H](O)[C@H]1O [Zebularine] + Nc1nc2[nH]cc(CCc3ccc(C(=O)N[C@@H](CCC(=O)O)C(=O)O)cc3)c2c(=O)[nH]1 [Pemetrexed] (partner 0.2 µM)
Procedure, shortened: (§1)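 Relative viability divides the nuclei count in treated wells by that in vehicle wells. Lung cancer cell lines were seeded in 1536-well plates, dosed by pin tool the next day, and fixed and stained after 5 days in one step with final 0.05% Triton X-100, 1% formaldehyde and 1 ug/ml Hoechst. Dosing was a single drug or a fixed anchor-drug dose plus five library-drug doses (not always all listed) in √10 steps, and values are medians of duplicate plates imaged at 4×.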

[2] = compound: CC(C)CCN1c2nc(Nc3cc(F)c(O)c(F)c3)ncc2N(C)C(=O)C1C [BI-D1870] + COc1cccc2cc(-c3nc([C@H]4CC[C@H](C(=O)O)CC4)n4ncnc(N)c34)[nH]c12 [OSI-027] (partner 0.5 µM)
Procedure, shortened: as §1

[3] = compound: O=c1ncccn1[C@@H]1O[C@H](CO)[C@@H](O)[C@H]1O [Zebularine]
Procedure, shortened: (§2)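 Viability is treated-well nuclei as a fraction of vehicle-well nuclei, reported as the median across plates. Before counting, lung cancer cell lines were kept overnight at 37 °C in 1536-well plates, pinned with five √10-spaced library-drug doses on vehicle-anchored plates, and left 5 days without medium change, then fixed, permeabilised and Hoechst-stained in one step, imaged at 4× and counted by MetaXpress. A plate passed only if control CV was below 25% and at least one doubling occurred.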

[4] = compound: CC(C)CCN1c2nc(Nc3cc(F)c(O)c(F)c3)ncc2N(C)C(=O)C1C [BI-D1870]
Procedure, shortened: as §2

NCI-H2126
relative viability ([1]; first compound 1 µM): 0.635
relative viability ([1]; first compound 3.162 µM): 0.487
relative viability ([1]; first compound 10 µM): 0.592
relative viability ([1]; first compound 31.62 µM): 0.453
relative viability ([1]; first compound 100 µM): 0.348
relative viability ([2]; first compound 0.04 µM): 0.74
relative viability ([2]; first compound 0.1265 µM): 0.64
relative viability ([2]; first compound 0.4 µM): 0.671
relative viability ([2]; first compound 1.265 µM): 0.716
relative viability ([2]; first compound 4 µM): 0.58
relative viability ([3]; 1 µM): 1.06
relative viability ([3]; 3.162 µM): 0.884
relative viability ([3]; 10 µM): 0.879
relative viability ([3]; 31.62 µM): 0.927
relative viability ([3]; 100 µM): 0.648
relative viability ([4]; 0.04 µM): 1.05
relative viability ([4]; 0.1265 µM): 0.889
relative viability ([4]; 0.4 µM): 0.981
relative viability ([4]; 1.265 µM): 1
relative viability ([4]; 4 µM): 0.854

NCI-H2170
relative viability ([1]; first compound 1 µM): 0.273
relative viability ([1]; first compound 3.162 µM): 0.289
relative viability ([1]; first compound 10 µM): 0.273
relative viability ([1]; first compound 31.62 µM): 0.27
relative viability ([1]; first compound 100 µM): 0.221
relative viability ([2]; first compound 0.04 µM): 0.732
relative viability ([2]; first compound 0.1265 µM): 0.634
relative viability ([2]; first compound 0.4 µM): 0.65
relative viability ([2]; first compound 1.265 µM): 0.428
relative viability ([2]; first compound 4 µM): 0.639
relative viability ([3]; 1 µM): 1.1
relative viability ([3]; 3.162 µM): 1.01
relative viability ([3]; 10 µM): 0.933
relative viability ([3]; 31.62 µM): 0.975
relative viability ([3]; 100 µM): 0.693
relative viability ([4]; 0.04 µM): 1.06
relative viability ([4]; 0.1265 µM): 0.925
relative viability ([4]; 0.4 µM): 0.961
relative viability ([4]; 1.265 µM): 0.949
relative viability ([4]; 4 µM): 0.843

NCI-H2228
relative viability ([1]; first compound 1 µM): 0.403
relative viability ([1]; first compound 3.162 µM): 0.293
relative viability ([1]; first compound 31.62 µM): 0.264
relative viability ([1]; first compound 100 µM): 0.152
relative viability ([2]; first compound 0.04 µM): 0.659
relative viability ([2]; first compound 0.1265 µM): 0.533
relative viability ([2]; first compound 0.4 µM): 0.654
relative viability ([2]; first compound 1.265 µM): 0.515
relative viability ([2]; first compound 4 µM): 0.257
relative viability ([3]; 1 µM): 1.17
relative viability ([3]; 3.162 µM): 1.08
relative viability ([3]; 10 µM): 0.782
relative viability ([3]; 31.62 µM): 0.8
relative viability ([3]; 100 µM): 0.486
relative viability ([4]; 0.04 µM): 0.999
relative viability ([4]; 0.1265 µM): 0.82
relative viability ([4]; 0.4 µM): 0.845
relative viability ([4]; 1.265 µM): 1.21
relative viability ([4]; 4 µM): 0.702

NCI-H2342
relative viability ([1]; first compound 1 µM): 0.795
relative viability ([1]; first compound 3.162 µM): 0.73
relative viability ([1]; first compound 10 µM): 0.572
relative viability ([1]; first compound 31.62 µM): 0.749
relative viability ([1]; first compound 100 µM): 0.628
relative viability ([2]; first compound 0.04 µM): 0.592
relative viability ([2]; first compound 0.1265 µM): 0.587
relative viability ([2]; first compound 0.4 µM): 0.645
relative viability ([2]; first compound 1.265 µM): 0.773
relative viability ([2]; first compound 4 µM): 0.679
relative viability ([3]; 1 µM): 1.01
relative viability ([3]; 3.162 µM): 0.953
relative viability ([3]; 10 µM): 0.757
relative viability ([3]; 31.62 µM): 0.984
relative viability ([3]; 100 µM): 0.853
relative viability ([4]; 0.04 µM): 0.983
relative viability ([4]; 0.1265 µM): 0.919
relative viability ([4]; 0.4 µM): 1
relative viability ([4]; 1.265 µM): 1.09
relative viability ([4]; 4 µM): 1.15

NCI-H2347
relative viability ([1]; first compound 1 µM): 0.459
relative viability ([1]; first compound 3.162 µM): 0.466
relative viability ([1]; first compound 10 µM): 0.402
relative viability ([1]; first compound 31.62 µM): 0.361
relative viability ([1]; first compound 100 µM): 0.335
relative viability ([2]; first compound 0.04 µM): 0.422
relative viability ([2]; first compound 0.1265 µM): 0.458
relative viability ([2]; first compound 0.4 µM): 0.374
relative viability ([2]; first compound 1.265 µM): 0.476
relative viability ([2]; first compound 4 µM): 0.478
relative viability ([3]; 1 µM): 1.11
relative viability ([3]; 3.162 µM): 1.05
relative viability ([3]; 10 µM): 0.753
relative viability ([3]; 31.62 µM): 0.583
relative viability ([3]; 100 µM): 0.489
relative viability ([4]; 0.04 µM): 1.14
relative viability ([4]; 0.1265 µM): 1.02
relative viability ([4]; 0.4 µM): 0.964
relative viability ([4]; 1.265 µM): 1.06
relative viability ([4]; 4 µM): 0.894

NCI-H2405
relative viability ([1]; first compound 1 µM): 1.14
relative viability ([1]; first compound 3.162 µM): 0.913
relative viability ([1]; first compound 10 µM): 0.795
relative viability ([1]; first compound 31.62 µM): 1.09
relative viability ([1]; first compound 100 µM): 0.681
relative viability ([2]; first compound 0.04 µM): 0.675
relative viability ([2]; first compound 0.1265 µM): 0.634
relative viability ([2]; first compound 0.4 µM): 0.643
relative viability ([2]; first compound 1.265 µM): 0.688
relative viability ([2]; first compound 4 µM): 0.642
relative viability ([3]; 1 µM): 1.02
relative viability ([3]; 3.162 µM): 0.992
relative viability ([3]; 10 µM): 0.871
relative viability ([3]; 31.62 µM): 0.968
relative viability ([3]; 100 µM): 0.726
relative viability ([4]; 0.04 µM): 1.07
relative viability ([4]; 0.1265 µM): 0.985
relative viability ([4]; 0.4 µM): 1.03
relative viability ([4]; 1.265 µM): 1.07
relative viability ([4]; 4 µM): 0.909

NCI-H3122
relative viability ([1]; first compound 1 µM): 0.189
relative viability ([1]; first compound 3.162 µM): 0.183
relative viability ([1]; first compound 10 µM): 0.175
relative viability ([1]; first compound 31.62 µM): 0.225
relative viability ([1]; first compound 100 µM): 0.225
relative viability ([2]; first compound 0.04 µM): 1.08
relative viability ([2]; first compound 0.1265 µM): 0.876
relative viability ([2]; first compound 0.4 µM): 0.932
relative viability ([2]; first compound 1.265 µM): 1.07
relative viability ([2]; first compound 4 µM): 0.619
relative viability ([3]; 1 µM): 1.03
relative viability ([3]; 3.162 µM): 0.987
relative viability ([3]; 10 µM): 0.875
relative viability ([3]; 31.62 µM): 1.01
relative viability ([3]; 100 µM): 1.04
relative viability ([4]; 0.04 µM): 1.03
relative viability ([4]; 0.1265 µM): 0.927
relative viability ([4]; 0.4 µM): 0.951
relative viability ([4]; 1.265 µM): 1.02
relative viability ([4]; 4 µM): 0.903
